From ChEMBL document CHEMBL1138378, “Halogenation of 4-hydroxy-3-methoxybenzyl thiourea TRPV1 agonists showed enhanced antagonism to capsaicin” (Bioorg Med Chem Lett, 2007)

How the values were obtained:
[1] = target: T1, Transient receptor potential cation channel subfamily V member 1 (Rattus norvegicus, UniProt O35433); assay: (§1) Antagonist activity at rat TRPV1 expressed in CHO cells assessed as inhibition of calcium uptake; type: functional, cell-based
[2] = target: T1, Transient receptor potential cation channel subfamily V member 1; assay: Displacement of [3H]RTX from rat TRPV1 expressed in CHO cells; type: cell-based
[3] = target: Transient receptor potential cation channel subfamily V member 1 (Rattus norvegicus) (UniProt O35433); assay: as §1; type: functional, cell-based; design: concentration or dose not given beside the values; settings: concentration not given here
[4] = target: Transient receptor potential cation channel subfamily V member 1 (Rattus norvegicus) (UniProt O35433); assay: Agonist activity at rat TRPV1 expressed in CHO cells assessed as maximal calcium uptake relative to capsaicin; type: functional, cell-based
[5] = target: T1, Transient receptor potential cation channel subfamily V member 1; assay: Agonist activity at rat TRPV1 expressed in CHO cells assessed as maximal calcium uptake; type: functional, cell-based

T1 sequence (O35433 whole entry): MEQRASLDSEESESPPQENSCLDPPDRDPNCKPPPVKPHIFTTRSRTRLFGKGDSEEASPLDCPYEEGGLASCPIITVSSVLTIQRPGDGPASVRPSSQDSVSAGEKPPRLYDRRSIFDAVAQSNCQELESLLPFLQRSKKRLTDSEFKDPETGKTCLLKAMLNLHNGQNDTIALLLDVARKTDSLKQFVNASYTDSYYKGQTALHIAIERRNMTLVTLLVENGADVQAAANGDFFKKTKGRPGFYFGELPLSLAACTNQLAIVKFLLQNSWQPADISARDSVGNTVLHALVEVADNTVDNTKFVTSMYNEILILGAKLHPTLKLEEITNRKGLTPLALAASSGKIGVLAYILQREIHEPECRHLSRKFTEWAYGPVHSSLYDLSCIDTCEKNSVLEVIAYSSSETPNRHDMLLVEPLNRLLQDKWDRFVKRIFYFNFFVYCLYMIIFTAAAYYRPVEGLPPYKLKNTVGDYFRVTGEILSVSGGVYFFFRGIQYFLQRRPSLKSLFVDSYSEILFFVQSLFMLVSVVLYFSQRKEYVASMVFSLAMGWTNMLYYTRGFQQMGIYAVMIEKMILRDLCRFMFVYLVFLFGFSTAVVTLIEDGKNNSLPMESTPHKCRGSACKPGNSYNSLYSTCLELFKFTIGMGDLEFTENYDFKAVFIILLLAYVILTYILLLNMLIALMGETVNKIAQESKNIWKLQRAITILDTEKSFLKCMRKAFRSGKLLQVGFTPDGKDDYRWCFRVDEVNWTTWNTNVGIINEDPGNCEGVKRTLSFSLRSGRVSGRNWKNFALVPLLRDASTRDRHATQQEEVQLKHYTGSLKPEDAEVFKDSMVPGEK
Chain of Transient receptor potential cation channel subfamily V member 1 (Rattus norvegicus) (O35433 whole entry): as above

SMILES	Ki [1]	Ki [2]	inhibition [3]	Activity [4]	EC50 [5]
COc1cc(CNC(=S)NCC(COC(=O)C(C)(C)C)Cc2ccc(C(C)(C)C)cc2)c(Br)cc1O (configuration not stated)	55 nM	12.8 nM	–	–	–
COc1cc(CNC(=S)NC(COC(=O)C(C)(C)C)Cc2ccc(C(C)(C)C)cc2)cc(Br)c1O (configuration not stated)	–	38.2 nM	29%	57%	–
COc1cc(CNC(=S)NC(CCc2ccc(C(C)(C)C)cc2)COC(=O)C(C)(C)C)ccc1O (configuration not stated)	–	36.5 nM	–	–	21.5 nM
COc1cc(CNC(=S)NC(CCc2ccc(C(C)(C)C)cc2)COC(=O)C(C)(C)C)c(I)cc1O (configuration not stated)	69 nM	79 nM	–	–	–
COc1cc(CNC(=S)NCC(COC(=O)C(C)(C)C)Cc2ccc(C)c(C)c2)c(I)cc1O (configuration not stated)	23.1 nM	18.9 nM	–	–	–
COc1cc(CNC(=S)NC(CCc2ccc(C)c(C)c2)COC(=O)C(C)(C)C)c(Cl)cc1O (configuration not stated)	–	103 nM	45%	60%	–
COc1cc(CNC(=S)NCC(COC(=O)C(C)(C)C)Cc2ccc(C)c(C)c2)c(Br)cc1O (configuration not stated)	–	19.9 nM	91%	13%	–
COc1cc(CNC(=S)NCc2ccc(C(C)(C)C)cc2)cc(I)c1O	176 nM	342 nM	–	–	–
COc1cc(CNC(=S)NC(CCc2ccc(C)c(C)c2)COC(=O)C(C)(C)C)c(Br)cc1O (configuration not stated)	–	109 nM	75%	13%	–
COc1cc(CNC(=S)NCC(COC(=O)C(C)(C)C)Cc2ccc(C(C)(C)C)cc2)cc(I)c1O (configuration not stated)	103 nM	45 nM	–	–	–
COc1cc(CNC(=S)NCC(COC(=O)C(C)(C)C)Cc2ccc(C(C)(C)C)cc2)c(I)cc1O (configuration not stated)	71 nM	13.3 nM	–	–	–
COc1cc(CNC(=S)NC(CCc2ccc(C(C)(C)C)cc2)COC(=O)C(C)(C)C)cc(Cl)c1O (configuration not stated)	–	122 nM	47%	44%	–
COc1cc(CNC(=S)NC(CCc2ccc(C)c(C)c2)COC(=O)C(C)(C)C)c(I)cc1O (configuration not stated)	176 nM	140 nM	–	–	–
COc1cc(CNC(=S)NCC(COC(=O)C(C)(C)C)Cc2ccc(C)c(C)c2)cc(Cl)c1O (configuration not stated)	–	30.9 nM	–	93%	–
COc1cc(CNC(=S)NCc2ccc(C(C)(C)C)cc2)c(Br)cc1O	30.3 nM	42.1 nM	–	–	–
COc1cc(CNC(=S)NCC(COC(=O)C(C)(C)C)Cc2ccc(C(C)(C)C)cc2)cc(Br)c1O (configuration not stated)	–	18.8 nM	85%	9%	–
COc1cc(CNC(=S)NC(COC(=O)C(C)(C)C)Cc2ccc(C(C)(C)C)cc2)cc(Cl)c1O (configuration not stated)	–	28.8 nM	–	–	60 nM
COc1cc(CNC(=S)NC(COC(=O)C(C)(C)C)Cc2ccc(C(C)(C)C)cc2)c(Cl)cc1O (configuration not stated)	–	41.5 nM	11%	94%	–
COc1cc(CNC(=S)NCC(COC(=O)C(C)(C)C)Cc2ccc(C)c(C)c2)cc(I)c1O (configuration not stated)	121 nM	232 nM	–	–	–
COc1cc(CNC(=S)NC(CCc2ccc(C(C)(C)C)cc2)COC(=O)C(C)(C)C)cc(Br)c1O (configuration not stated)	–	143 nM	73%	19%	–

SMILES	Ki [1]	Ki [2]	inhibition [3]	Activity [4]	EC50 [5]
CCCCCCCCC(=O)NCc1cc(OC)c(O)cc1I	127 nM	1320 nM	–	–	–
COc1cc(CNC(=S)NCC(COC(=O)C(C)(C)C)Cc2ccc(C)c(C)c2)cc(Br)c1O (configuration not stated)	–	33.1 nM	70%	29%	–
COc1cc(CNC(=S)NC(CCc2ccc(C(C)(C)C)cc2)COC(=O)C(C)(C)C)cc(I)c1O (configuration not stated)	525 nM	214 nM	–	–	–
COc1cc(CNC(=S)NCc2ccc(C(C)(C)C)cc2)ccc1O	–	58.6 nM	–	–	2.5 nM
COc1cc(CNC(=S)NC(COC(=O)C(C)(C)C)Cc2ccc(C(C)(C)C)cc2)cc(I)c1O (configuration not stated)	178 nM	39.4 nM	–	–	–
COc1cc(CNC(=S)NC(CCc2ccc(C(C)(C)C)cc2)COC(=O)C(C)(C)C)c(Br)cc1O (configuration not stated)	76.1 nM	75 nM	–	–	–
COc1cc(CNC(=S)NC(CCc2ccc(C)c(C)c2)COC(=O)C(C)(C)C)cc(I)c1O (configuration not stated)	115 nM	127 nM	–	–	–
COc1cc(CNC(=S)NC(COC(=O)C(C)(C)C)Cc2ccc(C(C)(C)C)cc2)c(I)cc1O (configuration not stated)	310 nM	96 nM	–	–	–
COc1cc(CNC(=S)NCc2ccc(C(C)(C)C)cc2)c(Cl)cc1O	–	36.9 nM	81%	33%	–
COc1cc(CNC(=S)NC(CCc2ccc(C)c(C)c2)COC(=O)C(C)(C)C)ccc1O (configuration not stated)	–	56 nM	–	–	14.7 nM
COc1cc(CNC(=S)NCC(COC(=O)C(C)(C)C)Cc2ccc(C)c(C)c2)c(Cl)cc1O (configuration not stated)	–	24.2 nM	41%	63%	–
COc1cc(CNC(=S)NC(COC(=O)C(C)(C)C)Cc2ccc(C(C)(C)C)cc2)c(Br)cc1O (configuration not stated)	–	74.9 nM	51%	41%	–
COc1cc(CNC(=S)NC(CCc2ccc(C)c(C)c2)COC(=O)C(C)(C)C)cc(Cl)c1O (configuration not stated)	–	86 nM	16%	88%	–
COc1cc(CNC(=S)NCc2ccc(C(C)(C)C)cc2)cc(Cl)c1O	–	76 nM	92%	5%	–
COc1cc(CNC(=S)NC(CCc2ccc(C)c(C)c2)COC(=O)C(C)(C)C)cc(Br)c1O (configuration not stated)	–	102 nM	59%	50%	–
COc1cc(CNC(=S)NC(CCc2ccc(C(C)(C)C)cc2)COC(=O)C(C)(C)C)c(Cl)cc1O (configuration not stated)	72.2 nM	79 nM	–	–	–
COc1cc(CNC(=S)NCc2ccc(C(C)(C)C)cc2)cc(Br)c1O	49 nM	51.6 nM	–	–	–
COc1cc(CNC(=S)NCC(COC(=O)C(C)(C)C)Cc2ccc(C(C)(C)C)cc2)c(Cl)cc1O (configuration not stated)	–	12.2 nM	71%	24%	–
COc1cc(CNC(=S)NCc2ccc(C(C)(C)C)cc2)c(I)cc1O	156 nM	130 nM	–	–	–
COc1cc(CNC(=S)NCC(COC(=O)C(C)(C)C)Cc2ccc(C(C)(C)C)cc2)cc(Cl)c1O (configuration not stated)	–	21.3 nM	37%	49%	–
